Results from the NIST ThermoML archive (doi:10.1021/acs.jced.8b00132).
Several values for one entry are separate records, joined by “and”; a condition that tells them apart may be missing. Equal entries are not always repeated.

Details: transient hot wire

O=C(C(F)(F)C(F)(F)F)C(F)(C(F)(F)F)C(F)(F)F [dodecafluoro-2-methylpentan-3-one]
Details | thermal conductivity
331.38 K, 45565 kPa, Liquid | 0.06924 W/m/K
331.38 K, 45571 kPa, Liquid | 0.06916 W/m/K
331.39 K, 36560 kPa, Liquid | 0.06692 W/m/K
331.4 K, 36561 kPa, Liquid | 0.0672 W/m/K
331.51 K, 102 kPa, Gas | 0.01402 W/m/K
331.54 K, 107 kPa, Gas | 0.01383 W/m/K
331.55 K, 3950 kPa, Liquid | 0.05388 W/m/K
331.55 K, 3951 kPa, Liquid | 0.05379 W/m/K
331.56 K, 72 kPa, Gas | 0.01361 W/m/K
331.58 K, 74 kPa, Gas | 0.01363 W/m/K
331.64 K, 28068 kPa, Liquid | 0.06457 W/m/K
331.64 K, 28075 kPa, Liquid | 0.06383 W/m/K
331.67 K, 20446 kPa, Liquid | 0.06141 W/m/K
331.67 K, 20447 kPa, Liquid | 0.06118 W/m/K
331.7 K, 14109 kPa, Liquid | 0.0585 W/m/K
331.71 K, 14116 kPa, Liquid | 0.05838 W/m/K
331.75 K, 8577 kPa, Liquid | 0.05613 W/m/K
331.75 K, 69214 kPa, Liquid | 0.07577 W/m/K
331.76 K, 8578 kPa, Liquid | 0.0562 W/m/K
331.76 K, 69231 kPa, Liquid | 0.07536 W/m/K
331.77 K, 57729 kPa, Liquid | 0.0724 W/m/K
331.77 K, 57733 kPa, Liquid | 0.07259 W/m/K
331.79 K, 239 kPa, Liquid | 0.05138 W/m/K
331.79 K, 45573 kPa, Liquid | 0.06907 W/m/K
331.8 K, 242 kPa, Liquid | 0.05139 W/m/K
331.8 K, 45574 kPa, Liquid | 0.06925 W/m/K
331.81 K, 102 kPa, Gas | 0.01364 W/m/K
331.83 K, 106 kPa, Gas | 0.01386 W/m/K
331.83 K, 36555 kPa, Liquid | 0.06649 W/m/K
331.83 K, 36558 kPa, Liquid | 0.06686 W/m/K
331.84 K, 107 kPa, Liquid | 0.05166 W/m/K and 0.05159 W/m/K
331.86 K, 71 kPa, Gas | 0.01366 W/m/K
331.89 K, 74 kPa, Gas | 0.01368 W/m/K
332.07 K, 3947 kPa, Liquid | 0.05394 W/m/K
332.08 K, 3946 kPa, Liquid | 0.05395 W/m/K
332.12 K, 28065 kPa, Liquid | 0.06395 W/m/K
332.12 K, 28069 kPa, Liquid | 0.06418 W/m/K
332.14 K, 107 kPa, Gas | 0.01388 W/m/K
332.18 K, 20442 kPa, Liquid | 0.0612 W/m/K and 0.06122 W/m/K
332.19 K, 71 kPa, Gas | 0.0138 W/m/K
332.19 K, 69215 kPa, Liquid | 0.07588 W/m/K
332.19 K, 69218 kPa, Liquid | 0.07551 W/m/K
332.22 K, 57721 kPa, Liquid | 0.07263 W/m/K
332.22 K, 57724 kPa, Liquid | 0.07259 W/m/K
332.23 K, 74 kPa, Gas | 0.01373 W/m/K
332.23 K, 14110 kPa, Liquid | 0.05828 W/m/K
332.23 K, 14111 kPa, Liquid | 0.05807 W/m/K
332.27 K, 45566 kPa, Liquid | 0.06911 W/m/K
332.28 K, 45563 kPa, Liquid | 0.06904 W/m/K
332.3 K, 8573 kPa, Liquid | 0.0558 W/m/K
332.3 K, 8574 kPa, Liquid | 0.05582 W/m/K
332.32 K, 36553 kPa, Liquid | 0.06631 W/m/K
332.33 K, 36552 kPa, Liquid | 0.06642 W/m/K
332.35 K, 238 kPa, Liquid | 0.05149 W/m/K
332.35 K, 239 kPa, Liquid | 0.05131 W/m/K
332.38 K, 108 kPa, Liquid | 0.05165 W/m/K
332.39 K, 107 kPa, Liquid | 0.05161 W/m/K
332.47 K, 102 kPa, Gas | 0.01373 W/m/K
332.56 K, 71 kPa, Gas | 0.01389 W/m/K
332.59 K, 73 kPa, Gas | 0.01379 W/m/K
332.65 K, 28066 kPa, Liquid | 0.0639 W/m/K
332.66 K, 28069 kPa, Liquid | 0.06388 W/m/K
332.68 K, 3944 kPa, Liquid | 0.05341 W/m/K
332.68 K, 3949 kPa, Liquid | 0.05349 W/m/K
332.68 K, 69200 kPa, Liquid | 0.07562 W/m/K
332.69 K, 69200 kPa, Liquid | 0.07558 W/m/K
332.73 K, 20437 kPa, Liquid | 0.06118 W/m/K
332.73 K, 57710 kPa, Liquid | 0.07255 W/m/K
332.73 K, 57718 kPa, Liquid | 0.07251 W/m/K
332.74 K, 20439 kPa, Liquid | 0.06126 W/m/K
332.8 K, 45557 kPa, Liquid | 0.06917 W/m/K
332.81 K, 45558 kPa, Liquid | 0.06905 W/m/K
332.82 K, 14107 kPa, Liquid | 0.05846 W/m/K
332.83 K, 102 kPa, Gas | 0.01371 W/m/K
332.83 K, 14108 kPa, Liquid | 0.05829 W/m/K
332.85 K, 107 kPa, Gas | 0.01391 W/m/K
332.87 K, 36553 kPa, Liquid | 0.06645 W/m/K
332.87 K, 36556 kPa, Liquid | 0.06639 W/m/K
332.91 K, 8572 kPa, Liquid | 0.05573 W/m/K
332.91 K, 8573 kPa, Liquid | 0.05574 W/m/K
332.94 K, 70 kPa, Gas | 0.01377 W/m/K
332.97 K, 73 kPa, Gas | 0.01383 W/m/K
332.97 K, 230 kPa, Liquid | 0.05124 W/m/K
332.98 K, 237 kPa, Liquid | 0.05109 W/m/K
